The values below come from patent publication US20040224958A1, “Pyridopyrimidinone derivatives for treatment of neurodegenerative disease” (priority 2000, published 2004).

Chain of cdk4/D (P11802 whole entry): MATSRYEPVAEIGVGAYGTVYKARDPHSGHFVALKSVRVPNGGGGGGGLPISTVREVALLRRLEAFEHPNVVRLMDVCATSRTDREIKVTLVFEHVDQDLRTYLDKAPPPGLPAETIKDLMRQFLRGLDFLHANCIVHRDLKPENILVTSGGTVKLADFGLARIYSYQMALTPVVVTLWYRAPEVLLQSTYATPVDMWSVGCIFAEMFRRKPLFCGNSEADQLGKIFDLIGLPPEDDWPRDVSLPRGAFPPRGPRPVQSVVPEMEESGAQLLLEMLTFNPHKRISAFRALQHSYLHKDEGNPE
Chain of cdk4/D (P24385 whole entry, further chain): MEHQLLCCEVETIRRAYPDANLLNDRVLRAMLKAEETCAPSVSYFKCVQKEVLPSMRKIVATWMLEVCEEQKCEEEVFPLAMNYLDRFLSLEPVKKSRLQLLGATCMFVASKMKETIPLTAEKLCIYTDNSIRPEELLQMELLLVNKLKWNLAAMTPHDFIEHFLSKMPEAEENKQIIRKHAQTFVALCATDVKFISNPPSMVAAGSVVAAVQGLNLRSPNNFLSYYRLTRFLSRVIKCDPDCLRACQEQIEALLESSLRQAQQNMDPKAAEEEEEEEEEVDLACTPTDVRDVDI

The target in one test is cdk2/cyclinA (Homo sapiens, UniProt P24941). Nature of the test: Cyclin-Dependent Kinase Assay cdk2/cyclinA. The settings on record: cdk2/A IC50.
Molecule `CCCn1c(=O)ccc2cnc(Nc3ccc(C)c(C)c3)nc21` [Example 318, 2-(3,4-Dimethyl-phenylamino)-8-propyl-8H-pyrido[2,3-d]pyrimidin-7-one] registered an IC50 of 1280 nM.
As to `CCCn1c(=O)ccc2cnc(Nc3cc(Cl)cc(Cl)c3)nc21` [Example 319, 2-(3,5-Dichloro-phenylamino)-8-propyl-8H-pyrido[2,3-d]pyrimidin-7-one], the IC50 was 855 nM.
With `CCCn1c(=O)ccc2cnc(Nc3ccc([N+](=O)[O-])cc3F)nc21` [Example 320, 2-(2-Fluoro-4-nitro-phenylamino)-8-propyl-8H-pyrido[2,3-d]pyrimidin-7-one], the IC50 amounted to 2640 nM.
Take `CCCn1c(=O)ccc2cnc(Nc3ccc(F)cc3F)nc21` [Example 321, 2-(2,4-Difluoro-phenylamino)-8-propyl-8H-pyrido[2,3-d]pyrimidin-7-one]: the IC50 was determined as 3160 nM.
`CCCn1c(=O)ccc2cnc(Nc3ccc(C#N)cc3)nc21` [Example 322, 4-(7-Oxo-8-propyl-7,8-dihydro-pyrido[2,3-d]pyrimidin-2-ylamino)-benzonitrile] displayed an IC50 of 554 nM.
`CCCn1c(=O)ccc2cnc(Nc3ccc4[nH]ccc4c3)nc21` [Example 323, 2-(1H-Indol-5-ylamino)-8-propyl-8H-pyrido[2,3-d]pyrimidin-7-one] gave an IC50 of 250 nM.
The same measure, in the same setting: then `CCCn1c(=O)ccc2cnc(Nc3ccc4[nH]ncc4c3)nc21` [Example 324, 2-(1H-Indazol-5-ylamino)-8-propyl-8H-pyrido[2,3-d]pyrimidin-7-one], with 145 nM; and `CCCn1c(=O)ccc2cnc(Nc3ccc4[nH]nnc4c3)nc21` [Example 325, 2-(1H-Benzotriazol-5-ylamino)-8-propyl-8H-pyrido[2,3-d]pyrimidin-7-one], with 126 nM; and `CCCn1c(=O)ccc2cnc(Nc3ccc(O)c(Cl)c3)nc21` [Example 327, 2-(3-Chloro-4-hydroxy-phenylamino)-8-propyl-8H-pyrido[2,3-d]pyrimidin-7-one], with 67 nM.

For the next test, the target named is cdc2/cyclinB (Homo sapiens, UniProt P06493). Nature of the test: Cyclin-Dependent Kinase Assay cdc2/cyclinB.
Chain of cdc2/cyclinB (P06493 whole entry): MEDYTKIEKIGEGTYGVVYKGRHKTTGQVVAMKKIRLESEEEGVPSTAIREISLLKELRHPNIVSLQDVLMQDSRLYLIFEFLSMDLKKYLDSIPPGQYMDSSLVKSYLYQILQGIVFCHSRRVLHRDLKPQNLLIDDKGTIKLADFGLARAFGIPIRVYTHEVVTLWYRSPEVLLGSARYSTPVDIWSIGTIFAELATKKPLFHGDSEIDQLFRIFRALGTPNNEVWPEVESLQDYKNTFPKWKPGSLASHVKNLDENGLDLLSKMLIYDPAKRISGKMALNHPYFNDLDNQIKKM
Chain of cdc2/cyclinB (P14635 whole entry, further chain): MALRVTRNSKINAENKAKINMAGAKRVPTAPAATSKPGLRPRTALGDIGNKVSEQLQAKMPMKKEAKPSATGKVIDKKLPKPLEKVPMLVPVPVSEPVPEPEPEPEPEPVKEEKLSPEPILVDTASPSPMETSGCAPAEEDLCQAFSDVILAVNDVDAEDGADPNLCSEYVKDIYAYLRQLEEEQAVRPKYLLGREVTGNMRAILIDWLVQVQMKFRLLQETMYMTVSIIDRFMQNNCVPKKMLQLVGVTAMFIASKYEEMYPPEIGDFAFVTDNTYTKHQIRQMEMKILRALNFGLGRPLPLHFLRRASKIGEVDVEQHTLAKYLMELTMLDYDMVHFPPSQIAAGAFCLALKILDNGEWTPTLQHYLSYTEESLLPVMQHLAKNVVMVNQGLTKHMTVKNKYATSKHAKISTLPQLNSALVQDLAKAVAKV
Conditions: not given
In turn, `CCCn1c(=O)ccc2cnc(Nc3ccc(C)c(C)c3)nc21` [Example 318, 2-(3,4-Dimethyl-phenylamino)-8-propyl-8H-pyrido[2,3-d]pyrimidin-7-one] registered an IC50 of 216 nM.
On to `CCCn1c(=O)ccc2cnc(Nc3cc(Cl)cc(Cl)c3)nc21` [Example 319, 2-(3,5-Dichloro-phenylamino)-8-propyl-8H-pyrido[2,3-d]pyrimidin-7-one], for which the IC50 is 159 nM.
Take `CCCn1c(=O)ccc2cnc(Nc3ccc([N+](=O)[O-])cc3F)nc21` [Example 320, 2-(2-Fluoro-4-nitro-phenylamino)-8-propyl-8H-pyrido[2,3-d]pyrimidin-7-one]: the IC50 stood at 669 nM.
In turn, `CCCn1c(=O)ccc2cnc(Nc3ccc(F)cc3F)nc21` [Example 321, 2-(2,4-Difluoro-phenylamino)-8-propyl-8H-pyrido[2,3-d]pyrimidin-7-one] yielded an IC50 of 1240 nM.
`CCCn1c(=O)ccc2cnc(Nc3ccc(C#N)cc3)nc21` [Example 322, 4-(7-Oxo-8-propyl-7,8-dihydro-pyrido[2,3-d]pyrimidin-2-ylamino)-benzonitrile] came in with an IC50 of 597 nM.
In the case of `CCCn1c(=O)ccc2cnc(Nc3ccc4[nH]ccc4c3)nc21` [Example 323, 2-(1H-Indol-5-ylamino)-8-propyl-8H-pyrido[2,3-d]pyrimidin-7-one], the IC50 was 82 nM.
On to `CCCn1c(=O)ccc2cnc(Nc3ccc4[nH]ncc4c3)nc21` [Example 324, 2-(1H-Indazol-5-ylamino)-8-propyl-8H-pyrido[2,3-d]pyrimidin-7-one], for which the IC50 was 82.5 nM.
Molecule `CCCn1c(=O)ccc2cnc(Nc3ccc4[nH]nnc4c3)nc21` [Example 325, 2-(1H-Benzotriazol-5-ylamino)-8-propyl-8H-pyrido[2,3-d]pyrimidin-7-one] showed an IC50 of 1440 nM.
The same measure, in the same setting: under `CCCn1c(=O)ccc2cnc(Nc3ccc(O)c(Cl)c3)nc21` [Example 327, 2-(3-Chloro-4-hydroxy-phenylamino)-8-propyl-8H-pyrido[2,3-d]pyrimidin-7-one] stands 53 nM.

The next test has as its target cdk4/D (Homo sapiens, UniProt P11802). Nature of the test: Cyclin-Dependent Kinase 4 (cdk4) Assay. It counts as biochemical. The following applies: read-out: cdk4/D IC50.
For the molecule `CCCn1c(=O)ccc2cnc(Nc3ccc(C)c(C)c3)nc21` [Example 318, 2-(3,4-Dimethyl-phenylamino)-8-propyl-8H-pyrido[2,3-d]pyrimidin-7-one], the IC50 came out at 430 nM.
Same read-out and setting: then `CCCn1c(=O)ccc2cnc(Nc3cc(Cl)cc(Cl)c3)nc21` [Example 319, 2-(3,5-Dichloro-phenylamino)-8-propyl-8H-pyrido[2,3-d]pyrimidin-7-one], with 1550 nM; and `CCCn1c(=O)ccc2cnc(Nc3ccc([N+](=O)[O-])cc3F)nc21` [Example 320, 2-(2-Fluoro-4-nitro-phenylamino)-8-propyl-8H-pyrido[2,3-d]pyrimidin-7-one], with 1650 nM; and `CCCn1c(=O)ccc2cnc(Nc3ccc(F)cc3F)nc21` [Example 321, 2-(2,4-Difluoro-phenylamino)-8-propyl-8H-pyrido[2,3-d]pyrimidin-7-one], with 3640 nM.
Regarding `CCCn1c(=O)ccc2cnc(Nc3ccc(C#N)cc3)nc21` [Example 322, 4-(7-Oxo-8-propyl-7,8-dihydro-pyrido[2,3-d]pyrimidin-2-ylamino)-benzonitrile], the IC50 was determined as 637 nM.
As for `CCCn1c(=O)ccc2cnc(Nc3ccc4[nH]ccc4c3)nc21` [Example 323, 2-(1H-Indol-5-ylamino)-8-propyl-8H-pyrido[2,3-d]pyrimidin-7-one], the IC50 turned out to be 71.5 nM.
Turning to `CCCn1c(=O)ccc2cnc(Nc3ccc4[nH]ncc4c3)nc21` [Example 324, 2-(1H-Indazol-5-ylamino)-8-propyl-8H-pyrido[2,3-d]pyrimidin-7-one], the IC50 stood at 214 nM.
Same read-out and setting: under `CCCn1c(=O)ccc2cnc(Nc3ccc4[nH]nnc4c3)nc21` [Example 325, 2-(1H-Benzotriazol-5-ylamino)-8-propyl-8H-pyrido[2,3-d]pyrimidin-7-one] stands 165 nM.
As for `CCCn1c(=O)ccc2cnc(Nc3ccc(O)c(Cl)c3)nc21` [Example 327, 2-(3-Chloro-4-hydroxy-phenylamino)-8-propyl-8H-pyrido[2,3-d]pyrimidin-7-one], the IC50 was 189 nM.

Another test deals with Cdk5/p25 (Homo sapiens, UniProt Q00535). Nature of the test: Cyclin-Dependent Kinase 5 High Throughput Screening (cdk5-HTS) Assay. It counts as biochemical. The following applies: high throughput screen. In short, it runs like this:
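IC50 determined from 33P incorporation into GST-RbCOOH captured on glutathione plates and read by scintillation counting. Reaction: 1.0 μg/mL Cdk5/p25, 20 μM [γ33P]ATP, pH 7.4 Tris buffer with MgCl2 and DTT, 30 min at room temperature, stopped with EDTA.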
The molecule `CCCn1c(=O)ccc2cnc(Nc3ccc(C)c(C)c3)nc21` [Example 318, 2-(3,4-Dimethyl-phenylamino)-8-propyl-8H-pyrido[2,3-d]pyrimidin-7-one] displayed an IC50 of 69.1 nM.
In turn, `CCCn1c(=O)ccc2cnc(Nc3cc(Cl)cc(Cl)c3)nc21` [Example 319, 2-(3,5-Dichloro-phenylamino)-8-propyl-8H-pyrido[2,3-d]pyrimidin-7-one] showed an IC50 of 106 nM.
On the same count and under the same terms, then `CCCn1c(=O)ccc2cnc(Nc3ccc([N+](=O)[O-])cc3F)nc21` [Example 320, 2-(2-Fluoro-4-nitro-phenylamino)-8-propyl-8H-pyrido[2,3-d]pyrimidin-7-one], with 375 nM.
On the same count and under the same terms, then `CCCn1c(=O)ccc2cnc(Nc3ccc(F)cc3F)nc21` [Example 321, 2-(2,4-Difluoro-phenylamino)-8-propyl-8H-pyrido[2,3-d]pyrimidin-7-one], with 648 nM.
Molecule `CCCn1c(=O)ccc2cnc(Nc3ccc(C#N)cc3)nc21` [Example 322, 4-(7-Oxo-8-propyl-7,8-dihydro-pyrido[2,3-d]pyrimidin-2-ylamino)-benzonitrile] displayed an IC50 of 228 nM.
For `CCCn1c(=O)ccc2cnc(Nc3ccc4[nH]ccc4c3)nc21` [Example 323, 2-(1H-Indol-5-ylamino)-8-propyl-8H-pyrido[2,3-d]pyrimidin-7-one], the IC50 was determined as 53 nM.
Consider `CCCn1c(=O)ccc2cnc(Nc3ccc4[nH]ncc4c3)nc21` [Example 324, 2-(1H-Indazol-5-ylamino)-8-propyl-8H-pyrido[2,3-d]pyrimidin-7-one], for which the IC50 was found to be 32 nM.
`CCCn1c(=O)ccc2cnc(Nc3ccc4[nH]nnc4c3)nc21` [Example 325, 2-(1H-Benzotriazol-5-ylamino)-8-propyl-8H-pyrido[2,3-d]pyrimidin-7-one]: the IC50 came out at 39.5 nM.
For `CCCn1c(=O)ccc2cnc(Nc3ccc(O)c(Cl)c3)nc21` [Example 327, 2-(3-Chloro-4-hydroxy-phenylamino)-8-propyl-8H-pyrido[2,3-d]pyrimidin-7-one], the IC50 is 31 nM.

The target of another test is cdk2/cyclinE (Homo sapiens, UniProt P24941). Put plainly: Cyclin-Dependent Kinase Assay cdk2/cyclinE. The following applies: cdk2/E IC50.
For the molecule `CCCn1c(=O)ccc2cnc(Nc3ccc(C)c(C)c3)nc21` [Example 318, 2-(3,4-Dimethyl-phenylamino)-8-propyl-8H-pyrido[2,3-d]pyrimidin-7-one], the IC50 turned out to be 289 nM.
As for `CCCn1c(=O)ccc2cnc(Nc3cc(Cl)cc(Cl)c3)nc21` [Example 319, 2-(3,5-Dichloro-phenylamino)-8-propyl-8H-pyrido[2,3-d]pyrimidin-7-one], the IC50 stood at 161 nM.
Take `CCCn1c(=O)ccc2cnc(Nc3ccc([N+](=O)[O-])cc3F)nc21` [Example 320, 2-(2-Fluoro-4-nitro-phenylamino)-8-propyl-8H-pyrido[2,3-d]pyrimidin-7-one]: the IC50 was 451 nM.
Turning to `CCCn1c(=O)ccc2cnc(Nc3ccc(F)cc3F)nc21` [Example 321, 2-(2,4-Difluoro-phenylamino)-8-propyl-8H-pyrido[2,3-d]pyrimidin-7-one], the IC50 came to 1110 nM.
For `CCCn1c(=O)ccc2cnc(Nc3ccc(C#N)cc3)nc21` [Example 322, 4-(7-Oxo-8-propyl-7,8-dihydro-pyrido[2,3-d]pyrimidin-2-ylamino)-benzonitrile], the IC50 was determined as 300 nM.
Regarding `CCCn1c(=O)ccc2cnc(Nc3ccc4[nH]ccc4c3)nc21` [Example 323, 2-(1H-Indol-5-ylamino)-8-propyl-8H-pyrido[2,3-d]pyrimidin-7-one], the IC50 is 86.5 nM.
The molecule `CCCn1c(=O)ccc2cnc(Nc3ccc4[nH]ncc4c3)nc21` [Example 324, 2-(1H-Indazol-5-ylamino)-8-propyl-8H-pyrido[2,3-d]pyrimidin-7-one] had an IC50 of 53 nM.
`CCCn1c(=O)ccc2cnc(Nc3ccc4[nH]nnc4c3)nc21` [Example 325, 2-(1H-Benzotriazol-5-ylamino)-8-propyl-8H-pyrido[2,3-d]pyrimidin-7-one] had an IC50 of 38.7 nM.
Same read-out and setting: under `CCCn1c(=O)ccc2cnc(Nc3ccc(O)c(Cl)c3)nc21` [Example 327, 2-(3-Chloro-4-hydroxy-phenylamino)-8-propyl-8H-pyrido[2,3-d]pyrimidin-7-one] stands 25 nM.
